Where two headings read alike, the source gives them in different places.
Tests used:
[1] = for Freezing during “on” score / Motor Fluctuations (presence) score / Motor Fluctuations (severity) score / Rise from Chair score / ADL Speech score / Alternating Movements score / Changing position, i.e. turning in bed score / Dressing score / Dyskinesias (presence) score / Dyskinesias (severity) score / Feeding score / Gait score / Handwriting score / Hygiene score / Postural Tremor score / Rigidity score / Speech score / Swallowing score / Walking score / Rest Tremor score: 40 micrograms haloperidol/day oral, one patient; for Freezing during “on” score / Motor Fluctuations (presence) score / Motor Fluctuations (severity) score / Rise from Chair score: Baseline Time 1 score 0; for ADL Speech score / Alternating Movements score / Changing position, i.e. turning in bed score / Dressing score / Dyskinesias (presence) score / Dyskinesias (severity) score / Feeding score / Gait score / Handwriting score / Hygiene score / Postural Tremor score / Rigidity score / Speech score / Swallowing score / Walking score: Baseline Time 1 score 1; for Rest Tremor score: Baseline Time 1 score 2
rats = experiment: locomotion, exploration and grooming of rats given low-dose haloperidol; type: in vivo, rat
[2] = clinical use as antipsychotic; cited from earlier work
dopamine D2 receptors = dopamine D2 receptors (Homo sapiens, UniProt P14416); settings: PET with [11C]raclopride, over 24 hours, schizophrenia patients and volunteers; cited from earlier work
[3] = target: human cloned dopamine D2 receptors (Homo sapiens, UniProt P14416); settings: cited from earlier work

**Q.** With O=C(CCCN1CCC(O)(c2ccc(Cl)cc2)CC1)c1ccc(F)cc1 [haloperidol] as the compound, how does the “Freezing during “on” score” value ([1]; Score Time 2) read?
**A.** 0

**Q.** What about the “Motor Fluctuations (presence) score” value ([1]; Score Time 2) of the same compound?
**A.** 0

**Q.** And the “Motor Fluctuations (severity) score” value ([1]; Score Time 2)?
**A.** 0

**Q.** What about the “Rise from Chair score” value ([1]; Score Time 2) of the same compound?
**A.** 0

**Q.** And the “ADL Speech score” value ([1]; Score Time 2)?
**A.** 0

**Q.** And the “Alternating Movements score” value ([1]; Score Time 2)?
**A.** 0

**Q.** And the “Changing position, i.e. turning in bed score” value ([1]; Score Time 2)?
**A.** 1

**Q.** And the Dressing score ([1]; Score Time 2)?
**A.** 1

**Q.** And the “Dyskinesias (presence) score” value ([1]; Score Time 2)?
**A.** 0

**Q.** What about the “Dyskinesias (severity) score” value ([1]; Score Time 2) of the same compound?
**A.** 0

**Q.** And the Feeding score ([1]; Score Time 2)?
**A.** 1

**Q.** And the Gait score ([1]; Score Time 2)?
**A.** 0

**Q.** What about the Handwriting score ([1]; Score Time 2) of the same compound?
**A.** 1

**Q.** And the Hygiene score ([1]; Score Time 2)?
**A.** 1

**Q.** And the “Postural Tremor score” value ([1]; Score Time 2)?
**A.** 1

**Q.** And the Rigidity score ([1]; Score Time 2)?
**A.** 2

**Q.** What about the Speech score ([1]; Score Time 2) of the same compound?
**A.** 0

**Q.** And the Swallowing score ([1]; Score Time 2)?
**A.** 0

**Q.** And the Walking score ([1]; Score Time 2)?
**A.** 0

**Q.** And the “Rest Tremor score” value ([1]; Score Time 2)?
**A.** 2

**Q.** What about the “Freezing during “on” score” value ([1]; Score Time 3) of the same compound?
**A.** 0

**Q.** And the “Motor Fluctuations (presence) score” value ([1]; Score Time 3)?
**A.** 0

**Q.** What about the “Motor Fluctuations (severity) score” value ([1]; Score Time 3) of the same compound?
**A.** 0

**Q.** What about the “Rise from Chair score” value ([1]; Score Time 3) of the same compound?
**A.** 0

**Q.** And the “ADL Speech score” value ([1]; Score Time 3)?
**A.** 0

**Q.** And the “Alternating Movements score” value ([1]; Score Time 3)?
**A.** 1

**Q.** And the “Changing position, i.e. turning in bed score” value ([1]; Score Time 3)?
**A.** 1

**Q.** And the Dressing score ([1]; Score Time 3)?
**A.** 1

**Q.** And the “Dyskinesias (presence) score” value ([1]; Score Time 3)?
**A.** 0

**Q.** What about the “Dyskinesias (severity) score” value ([1]; Score Time 3) of the same compound?
**A.** 0

**Q.** And the Feeding score ([1]; Score Time 3)?
**A.** 1

**Q.** What about the Gait score ([1]; Score Time 3) of the same compound?
**A.** 1

**Q.** What about the Handwriting score ([1]; Score Time 3) of the same compound?
**A.** 1

**Q.** What about the Hygiene score ([1]; Score Time 3) of the same compound?
**A.** 1

**Q.** What about the “Postural Tremor score” value ([1]; Score Time 3) of the same compound?
**A.** 1

**Q.** What about the Rigidity score ([1]; Score Time 3) of the same compound?
**A.** 2

**Q.** What about the Speech score ([1]; Score Time 3) of the same compound?
**A.** 0

**Q.** What about the Swallowing score ([1]; Score Time 3) of the same compound?
**A.** 0

**Q.** What about the Walking score ([1]; Score Time 3) of the same compound?
**A.** 0

**Q.** And the “Rest Tremor score” value ([1]; Score Time 3)?
**A.** 2

**Q.** What about the “clinical observation: involuntary movements” value ([1]; Time 1 or Time 2, apart from resting tremor of right hand present at all times) of the same compound?
**A.** No involuntary movements noted

**Q.** And the overall conclusion ([1]; baseline to Time 1 and 2, most noticeable walking and overall presentation)?
**A.** A slight improvement from baseline to Time 1 and 2 on certain markers

**Q.** And the “clinical observation: rigidity on palpation” value ([1]; elbow joint, no rigidity on left, 40 micrograms/day oral)?
**A.** Slight increase in rigidity on palpation of elbow joint on right side

**Q.** And the “clinical observation: appearance, facial features” value ([1]; time 1 and 2 vs baseline, 40 micrograms/day oral)?
**A.** appeared brighter, less flat facial features

**Q.** What about the “behaviour of the animals” value (rats; 0.0025 mg/kg/day, 5 days) of the same compound?
**A.** heightened locomotion, active exploration and good grooming

**Q.** What about the “behaviour of the animals” value (rats; 0.005 mg/kg, on days 3-5 or upon stopping the haloperidol) of the same compound?
**A.** spontaneously increased locomotion and well-being

**Q.** And the “behaviour of the animals” value (rats; haloperidol 0.03 mg/kg down to 0.0025 mg/kg)?
**A.** heightened locomotion and active exploration

**Q.** For Cc1cc2c(s1)Nc1ccccc1N=C2N1CCN(C)CC1 [olanzapine], which “extrapyramidal signs (EPS) in patients” value [2] is on record?
**A.** dose-dependent incidence of extrapyramidal signs

**Q.** Which “extrapyramidal signs (EPS) in patients” value [2] does the source give for OCCOCCN1CCN(C2=Nc3ccccc3Sc3ccccc32)CC1 [quetiapine] here?
**A.** essentially no EPS occurs

**Q.** What about the “time course of human striatum D2 occupancy” value (dopamine D2 receptors) of the same compound?
**A.** rapidly falls off within 24 hours

**Q.** With [^3H]quetiapine as the compound, how does the “rate of release from D2 receptors relative to [3H]haloperidol or [3H]chlorpromazine” value [3] read?
**A.** at least one hundred times faster

Reference: patent US9192605B2, “Compositions and methods for treating parkinson's disease” (priority 2009, dated 2015)
